The results in this text go back to ChEMBL document CHEMBL1155382, “Bisleuconothine A, an eburnane-aspidosperma bisindole alkaloid from Leuconotis griffithii” (Bioorg Med Chem Lett, 2010).

As usually defined, the IC50 is the concentration that inhibits the measured activity by half. Low values mean greater potency, high ones weaker potency.

SMILES strings stand for the structures.

In assay [1] the test system is HCT-116. In words: Cell cycle arrest in human HCT116 cells assessed as accumulation at G1 phase at 20 uM after 24 hrs. Type of assay: functional.
Assay [2] relates to MCF7. Put plainly: Inhibition of cell growth in human MCF7 cells. Format: functional, cell-based.
Assay [3] relates to HCT-116. In words: Inhibition of cell growth in human HCT116 cells. Type of assay: functional, cell-based.
The subject of assay [4] is HCT-116. Put plainly: Cell cycle arrest in human HCT116 cells assessed as accumulation at G1 phase at 10 uM after 24 hrs. Type of assay: functional.
The test system of assay [5] is HL-60. In words: Inhibition of cell growth in human HL60 cells. Format: functional, cell-based.
The subject of assay [6] is HCT-116. Put plainly: Cell cycle arrest in human HCT116 cells assessed as accumulation at G1 phase at 5 uM after 24 hrs. Format: functional.
Assay [7] has as its system A549. In words: Inhibition of cell growth in human A549 cells. Type of assay: functional, cell-based.

Turning to `CC[C@@]12CCCN3CCc4c(n(c5ccccc45)[C@H](c4ccc(O)c5c4N[C@@H]4CC[C@@]6(CC)CCCN7CC[C@@]54[C@H]76)C1)[C@H]32` [BISLEUCONOTHINE A], the Activity was determined as 79.5% in assay [1], 75.1% in assay [4] and 72% in assay [6]. In addition, the IC50 amounted to 9.2 µM in assay [2], 5.7 µM in assay [3], 11 µM in assay [5] and 7 µM in assay [7].
